One data set addresses T1, Adenosine receptor A2b (Homo sapiens, UniProt P29275).
T1 sequence (P29275 whole entry): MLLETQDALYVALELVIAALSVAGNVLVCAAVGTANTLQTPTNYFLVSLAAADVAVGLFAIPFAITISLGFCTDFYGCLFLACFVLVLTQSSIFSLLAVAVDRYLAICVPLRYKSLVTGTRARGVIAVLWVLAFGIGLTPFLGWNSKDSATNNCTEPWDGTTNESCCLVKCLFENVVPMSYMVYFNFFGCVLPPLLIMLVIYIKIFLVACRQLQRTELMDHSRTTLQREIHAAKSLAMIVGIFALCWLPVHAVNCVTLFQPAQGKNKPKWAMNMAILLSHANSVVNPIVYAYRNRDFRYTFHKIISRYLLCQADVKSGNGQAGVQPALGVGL
Description: Displacement of [3H]-MRS-1754 from human adenosine receptor A2b expressed in HEK293 cell membranes after 90 mins by liquid scintillation counting method.
Settings: not given
`CCCn1c(=O)c2[nH]c(-c3cnn(CC4CC(=O)N(c5ccc(F)cc5)C4)c3)nc2n(CC)c1=O` (stereo not given) showed an inhibition constant Ki of 12 nM.
Still for that read-out and setting: to `CCCn1c(=O)c2[nH]c(-c3cnn(CC4CC(=O)N(c5cccc(F)c5)C4)c3)nc2n(CCC)c1=O` (stereo not given) belongs 41 nM; to `CCCn1c(=O)c2[nH]c(-c3cnn(CC4CCN(c5cccc(OC)c5)C4)c3)nc2n(CCC)c1=O` (stereo not given), 13.7 nM.
Same read-out and setting: as for `CCCn1c(=O)c2[nH]c(-c3ccc(OCC4CC(=O)N(c5cccc(C(F)(F)F)c5)C4)cc3)nc2n(CCC)c1=O` (stereo not given), the figure is 7.5 nM.

The next data set addresses T2, Adenosine receptor A1 (Homo sapiens) (UniProt P30542).
T2 sequence (whole entry): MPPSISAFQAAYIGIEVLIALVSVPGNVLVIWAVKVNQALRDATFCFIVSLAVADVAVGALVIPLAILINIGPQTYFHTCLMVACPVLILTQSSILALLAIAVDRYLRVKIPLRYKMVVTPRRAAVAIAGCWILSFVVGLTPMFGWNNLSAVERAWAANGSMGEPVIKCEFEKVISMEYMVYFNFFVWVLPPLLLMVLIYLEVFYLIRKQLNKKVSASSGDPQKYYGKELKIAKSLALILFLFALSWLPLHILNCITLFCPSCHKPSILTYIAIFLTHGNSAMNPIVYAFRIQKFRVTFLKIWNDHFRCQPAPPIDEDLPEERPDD
As to the kind of experiment: Displacement of [3H]DPCPX from human adenosine receptor A1 expressed in HEK293 cell membranes at 0.1 uM after 90 mins by liquid scintillation counting method relative to control.
Settings: not given
`CCCn1c(=O)c2[nH]c(-c3cnn(CC4CC(=O)N(c5ccc(F)cc5)C4)c3)nc2n(CC)c1=O` (stereo not given) came in with an inhibition of 22%.
Still for that read-out and setting: to `CCCn1c(=O)c2[nH]c(-c3cnn(CC4CC(=O)N(c5cccc(F)c5)C4)c3)nc2n(CCC)c1=O` (stereo not given) belongs 32%; to `CCCn1c(=O)c2[nH]c(-c3cnn(CC4CCN(c5cccc(OC)c5)C4)c3)nc2n(CCC)c1=O` (stereo not given), 43%.
Same read-out and setting: to `CCCn1c(=O)c2[nH]c(-c3ccc(OCC4CC(=O)N(c5cccc(C(F)(F)F)c5)C4)cc3)nc2n(CCC)c1=O` (stereo not given) belongs 1%.

The target of the next data set is T3, Adenosine receptor A2a (Homo sapiens, UniProt P29274). Description: Displacement of [3H]-ZM-241385 from human adenosine receptor A2a expressed in HEK293 cell membranes at 0.1 uM after 90 mins by liquid scintillation counting method relative to control.
T3 sequence (P29274 whole entry): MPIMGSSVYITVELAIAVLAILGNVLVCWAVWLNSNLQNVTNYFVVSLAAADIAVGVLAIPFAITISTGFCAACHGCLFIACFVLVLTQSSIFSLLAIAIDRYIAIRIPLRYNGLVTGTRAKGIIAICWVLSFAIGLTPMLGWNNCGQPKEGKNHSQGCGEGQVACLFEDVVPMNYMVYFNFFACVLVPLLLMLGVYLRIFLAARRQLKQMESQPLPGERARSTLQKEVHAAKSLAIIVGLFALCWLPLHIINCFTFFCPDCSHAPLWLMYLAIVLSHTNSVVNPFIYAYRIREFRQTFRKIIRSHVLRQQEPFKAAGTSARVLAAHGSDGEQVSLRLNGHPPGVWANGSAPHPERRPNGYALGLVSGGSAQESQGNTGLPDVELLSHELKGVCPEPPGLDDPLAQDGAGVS
Settings: not given
`CCCn1c(=O)c2[nH]c(-c3cnn(CC4CC(=O)N(c5ccc(F)cc5)C4)c3)nc2n(CC)c1=O` (stereo not given) had an inhibition of 33%.
Same read-out and setting: as for `CCCn1c(=O)c2[nH]c(-c3cnn(CC4CC(=O)N(c5cccc(F)c5)C4)c3)nc2n(CCC)c1=O` (stereo not given), the figure is 68%; as for `CCCn1c(=O)c2[nH]c(-c3cnn(CC4CCN(c5cccc(OC)c5)C4)c3)nc2n(CCC)c1=O` (stereo not given), 69%; as for `CCCn1c(=O)c2[nH]c(-c3ccc(OCC4CC(=O)N(c5cccc(C(F)(F)F)c5)C4)cc3)nc2n(CCC)c1=O` (stereo not given), 80%.

The next data set has as its target T4, Adenosine receptor A3 (Homo sapiens) (UniProt P0DMS8).
T4 sequence (whole entry): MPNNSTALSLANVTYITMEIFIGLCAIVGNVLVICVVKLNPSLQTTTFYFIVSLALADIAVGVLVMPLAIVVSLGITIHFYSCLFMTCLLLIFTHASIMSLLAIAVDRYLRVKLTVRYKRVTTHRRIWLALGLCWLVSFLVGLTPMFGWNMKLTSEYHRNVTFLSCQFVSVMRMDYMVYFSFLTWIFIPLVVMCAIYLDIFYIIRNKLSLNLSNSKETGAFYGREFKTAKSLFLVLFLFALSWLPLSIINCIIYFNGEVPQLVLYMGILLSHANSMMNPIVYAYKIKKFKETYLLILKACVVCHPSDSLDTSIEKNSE
Description: Displacement of [3H]-HEM-ADO from human adenosine receptor A3 expressed in HEK293 cell membranes at 1 uM after 90 mins by liquid scintillation counting method relative to control.
Settings: not given
`CCCn1c(=O)c2[nH]c(-c3cnn(CC4CC(=O)N(c5ccc(F)cc5)C4)c3)nc2n(CC)c1=O` (stereo not given) yielded an inhibition of 0%.
The same measure, in the same setting: as for `CCCn1c(=O)c2[nH]c(-c3cnn(CC4CC(=O)N(c5cccc(F)c5)C4)c3)nc2n(CCC)c1=O` (stereo not given), the figure is 17%; as for `CCCn1c(=O)c2[nH]c(-c3cnn(CC4CCN(c5cccc(OC)c5)C4)c3)nc2n(CCC)c1=O` (stereo not given), 12%.
For `CCCn1c(=O)c2[nH]c(-c3ccc(OCC4CC(=O)N(c5cccc(C(F)(F)F)c5)C4)cc3)nc2n(CCC)c1=O` (stereo not given), the inhibition was found to be 13%.

Test system in another data set: not listed separately
As to the kind of experiment: Solubility of the compound. The class given is physicochemical.
Settings: not given
Turning to `CCCn1c(=O)c2[nH]c(-c3ccc(OCC4CC(=O)N(c5cccc(C(F)(F)F)c5)C4)cc3)nc2n(CCC)c1=O` (stereo not given), the solubility entry is “Insoluble”.

A further data set relates to Liver. Description: Metabolic stability in mouse liver microsomes assessed as metabolic rate per mg protein preincubated for 5 mins followed by NADPH addition measured up to 30 mins by LC-MS/MS analysis. The data set is classed as ADME, microsome. The settings on record: 0.5 h.
For the compound `CCCn1c(=O)c2[nH]c(-c3cnn(CC4CC(=O)N(c5ccc(F)cc5)C4)c3)nc2n(CC)c1=O` (stereo not given), the Drug metabolism is 0.15 nmol/min/mg.
`CCCn1c(=O)c2[nH]c(-c3cnn(CC4CC(=O)N(c5cccc(F)c5)C4)c3)nc2n(CCC)c1=O` (stereo not given): the Drug metabolism came to 0.35 nmol/min/mg.
The same measure, in the same setting: to `CCCn1c(=O)c2[nH]c(-c3cnn(CC4CCN(c5cccc(OC)c5)C4)c3)nc2n(CCC)c1=O` (stereo not given) belongs 0.67 nmol/min/mg; to `CCCn1c(=O)c2[nH]c(-c3ccc(OCC4CC(=O)N(c5cccc(C(F)(F)F)c5)C4)cc3)nc2n(CCC)c1=O` (stereo not given), 0.06 nmol/min/mg.

The subject of another data set is Liver. As to the kind of experiment: Metabolic stability in human liver microsomes assessed as metabolic rate per mg protein preincubated for 5 mins followed by NADPH addition measured up to 30 mins by LC-MS/MS analysis. The class given is ADME, microsome. The settings on record: 0.5 h.
With `CCCn1c(=O)c2[nH]c(-c3cnn(CC4CC(=O)N(c5ccc(F)cc5)C4)c3)nc2n(CC)c1=O` (stereo not given), the Drug metabolism was 0 nmol/min/mg.
Still for that read-out and setting: as for `CCCn1c(=O)c2[nH]c(-c3cnn(CC4CC(=O)N(c5cccc(F)c5)C4)c3)nc2n(CCC)c1=O` (stereo not given), the figure is 0.02 nmol/min/mg; as for `CCCn1c(=O)c2[nH]c(-c3cnn(CC4CCN(c5cccc(OC)c5)C4)c3)nc2n(CCC)c1=O` (stereo not given), 0.78 nmol/min/mg.
For the compound `CCCn1c(=O)c2[nH]c(-c3ccc(OCC4CC(=O)N(c5cccc(C(F)(F)F)c5)C4)cc3)nc2n(CCC)c1=O` (stereo not given), the Drug metabolism was determined as 0.09 nmol/min/mg.

For the next data set, the target named is T5, Adenosine receptor A1 (Homo sapiens, UniProt P30542).
T5 sequence (P30542 whole entry): T2 sequence (whole entry)
Description: Displacement of [3H]DPCPX from human adenosine receptor A1 expressed in HEK293 cell membranes after 90 mins by liquid scintillation counting method.
Settings: not given
For `CCCn1c(=O)c2[nH]c(-c3cnn(CC4CC(=O)N(c5ccc(F)cc5)C4)c3)nc2n(CC)c1=O` (stereo not given), affinity was put at a Ki of 346 nM.

The next data set has as its target T3, Adenosine receptor A2a. As to the kind of experiment: Displacement of [3H]-ZM-241385 from human adenosine receptor A2a expressed in HEK293 cell membranes after 90 mins by liquid scintillation counting method.
Settings: not given
For the compound `CCCn1c(=O)c2[nH]c(-c3cnn(CC4CC(=O)N(c5ccc(F)cc5)C4)c3)nc2n(CC)c1=O` (stereo not given), the inhibitory constant (Ki) was determined as 192 nM.

The species named for the next data set is Homo sapiens. Description: Selectivity ratio of Ki for human adenosine receptor A1 expressed in HEK293 cell membranes to Ki for human adenosine receptor A2b expressed in HEK293 cell membranes. The data set is classed as cell-based.
Settings: not given
Take `CCCn1c(=O)c2[nH]c(-c3cnn(CC4CC(=O)N(c5ccc(F)cc5)C4)c3)nc2n(CC)c1=O` (stereo not given): the Ratio Ki worked out at 28.

The species named for the next data set is Homo sapiens. As to the kind of experiment: Selectivity ratio of Ki for human adenosine receptor A2a expressed in HEK293 cell membranes to Ki for human adenosine receptor A2b expressed in HEK293 cell membranes.
Settings: not given
The class given is cell-based.
`CCCn1c(=O)c2[nH]c(-c3cnn(CC4CC(=O)N(c5ccc(F)cc5)C4)c3)nc2n(CC)c1=O` (stereo not given): the Ratio Ki stood at 16.

The target of the next data set is T1, Adenosine receptor A2b. As to the kind of experiment: Antagonist activity at human adenosine receptor A2b expressed in HEK293 cells assessed as inhibition of NECA-induced cAMP level preincubated for 15 mins followed by NECA stimulation for 15 mins by HTRF assay.
Settings: not given
The data set is classed as functional, cell-based.
For `CCCn1c(=O)c2[nH]c(-c3cnn(CC4CC(=O)N(c5ccc(F)cc5)C4)c3)nc2n(CC)c1=O` (stereo not given), the Ki was determined as 4 nM.

For the origin of these results see ChEMBL document CHEMBL3994582, “A2B adenosine receptor antagonists: Design, synthesis and biological evaluation of novel xanthine derivatives” (Eur J Med Chem, 2017).
